Ki data for 24 compounds are collected here from US12486278B2, “MASP-2 inhibitors and methods of use” (Omeros Corporation, priority 2019, dated 2025).

The assay deals with T1, MASP-2 (CCP1-CCP2-SP) (Homo sapiens, UniProt O00187).
T1 construct: 15 μL of Enzyme MASP-2 (CCP1-CCP2-SP) in Assay Buffer
In words: Enzymatic Assay for MASP-2 (fluorogenic substrate). The note with it: fluorogenic substrate based on C2 cleavage site; room temperature, 20 min; 20 mM HEPES pH 7.4, 140 mM NaCl, 0.1% Tween 20. It counts as biochemical. How it is done: The MASP-2 assay utilizes a fluorogenic substrate, based on the cleavage site for its natural substrate C2. The assay is run at room temperature in an assay buffer containing 20 mM HEPES, pH 7.4, 140 mM NaCl and 0.1% Tween 20. Assay parameters are adjusted such that the assay is linear with respect to time, enzyme, and substrate concentrations. Under these optimized assays conditions, IC50 values are equivalent to Ki values, except in a few cases of “tight binding” inhibitors. Cases of “tight binding” or possible “slow binding” inhibitors are handled by the methods described in Copeland R. A. (2013) Evaluation of Enzyme Inhibitors in Drug Discovery. 2nd Ed., John Wiley and Sons, Inc., Chapters 5-7.
The MASP-2 assay protocol is carried out as follows. Test compounds are serially diluted in DMSO and then 100 nL of each dilution is transferred to the assay plate(s). 10 μL of Assay Buffer is added, followed by 15 μL of Enzyme MASP-2 (CCP1-CCP2-SP) in Assay Buffer. 15 μL of Substrate in Assay Buffer is then added and mixed to start the reactions. After 20 min at room temperature, 15 μL of a stop solution (0.1 M acetic acid) is added, mixed and the plates are read on a SpectraMax i3x Microplate Reader and exported as Excel files. Each assay plate included a “no inhibitor” (DMSO Only) control, a “no enzyme” control and a reference inhibitor control. % Activity values=100*(average test comp. fluorescence−average “no enzyme” fluorescence)/(average “DMSO only” fluorescence−average “no enzyme” fluorescence). IC50 and Ki values are very reproducible, falling well within ±2-fold.

Structures can show the parent of a compound that is named as a salt.

T1 sequence (O00187 445-686 limits assumed): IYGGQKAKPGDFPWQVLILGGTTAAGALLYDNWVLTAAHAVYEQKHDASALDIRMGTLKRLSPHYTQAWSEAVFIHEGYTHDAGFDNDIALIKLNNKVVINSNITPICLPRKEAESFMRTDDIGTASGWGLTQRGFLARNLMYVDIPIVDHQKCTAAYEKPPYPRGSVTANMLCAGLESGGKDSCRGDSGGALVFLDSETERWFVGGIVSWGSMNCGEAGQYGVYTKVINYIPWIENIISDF
T1 sequence (O00187 298-444 partner limits assumed): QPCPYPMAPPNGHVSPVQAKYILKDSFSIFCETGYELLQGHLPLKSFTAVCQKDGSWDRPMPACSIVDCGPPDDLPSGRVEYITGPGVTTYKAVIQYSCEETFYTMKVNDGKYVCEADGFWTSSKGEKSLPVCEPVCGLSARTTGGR

`C[C@H](NC(=O)[C@H]1C[C@H](Oc2ccccc2)CN1)C(=O)NCc1cnc2c(c1)c(Cl)cn2C` [Compound I-46, (2R,4S)—N—((S)-1-(((3-Chloro-1-Methyl-1H-Pyrrolo[2,3-B]Pyridin-5-Yl)Methyl)Amino)-1-Oxopropan-2-Yl)-4-Phenoxypyrrolidine-2-Carboxamide Trifluoroacetate]: the Ki (usually the dissociation constant of the complex between target and ligand, obtained from inhibition or displacement) was below 500 nM.
With `COC(=O)c1cccc(C[C@@H]2CN[C@@H](C(=O)N[C@@H](C)C(=O)NCc3ccc(N)nc3C)C2)c1` [Compound I-47, Methyl 3-(((3S,5R)-5-(((S)-1-(((6-Amino-2-Methylpyridin-3-Yl)Methyl)Amino)-1-Oxopropan-2-Yl)Carbamoyl)Pyrrolidin-3-Yl)Methyl)Benzoate Dihydrochloride] the figure was below 500 nM; with `Cc1nc(N)ccc1CNC(=O)[C@H](C)NC(=O)[C@H]1C[C@H](Cc2cccc(C(=O)O)c2)CN1` [Compound I-48, 3-(((3S,5R)-5-(((S)-1-(((6-Amino-2-Methylpyridin-3-Yl)Methyl)Amino)-1-Oxopropan-2-Yl)Carbamoyl)Pyrrolidin-3-Yl)Methyl)Benzoic Acid Di-Trifluoroacetate], below 500 nM.
Compound `Cc1nc(N)ccc1CNC(=O)[C@H](C)NC(=O)[C@H]1C[C@H](Cc2cccc(C(=O)NCCCCl)c2)CN1` [Compound I-49, (2R,4S)—N—((S)-1-(((6-Amino-2-Methylpyridin-3-Yl)Methyl)Amino)-1-Oxopropan-2-Yl)-4-(3-((3-Chloropropyl)Carbamoyl)Benzyl)Pyrrolidine-2-Carboxamide Di-Trifluoroacetate] displayed a Ki below 500 nM.
Compound `COC(=O)c1ccc(C[C@@H]2CN[C@@H](C(=O)N[C@@H](C)C(=O)NCc3ccc(N)nc3C)C2)cc1` [Compound I-50, Methyl 4-(((3S,5R)-5-(((S)-1-(((6-Amino-2-Methylpyridin-3-Yl)Methyl)Amino)-1-Oxopropan-2-Yl)Carbamoyl)Pyrrolidin-3-Yl)Methyl)Benzoate Dihydrochloride] returned a Ki below 500 nM.
For the compound `Cc1nc(N)ccc1CNC(=O)[C@H](C)NC(=O)[C@H]1C[C@H](Cc2ccc(C(=O)O)cc2)CN1` [Compound I-51, 4-(((3S,5R)-5-(((S)-1-(((6-Amino-2-Methylpyridin-3-Yl)Methyl)Amino)-1-Oxopropan-2-Yl)Carbamoyl)Pyrrolidin-3-Yl)Methyl)Benzoic Acid Di-Trifluoroacetate], the Ki is below 500 nM.
To `C[C@H](NC(=O)[C@H]1C=C(C2(c3ccccc3)CC2)CN1)C(=O)NCc1ccc(C(=N)N)cc1` [Compound I-52, (R)—N—((S)-1-((4-Carbamimidoylbenzyl)Amino)-1-Oxopropan-2-Yl)-4-(1-Phenylcyclopropyl)-2,5-Dihydro-1H-Pyrrole-2-Carboxamide Di-Trifluoroacetate] belongs below 500 nM; to `Cc1nc(N)ccc1CNC(=O)[C@H](C)NC(=O)[C@H]1C[C@H](Cc2ccn(C)c(=O)c2)CN1` [Compound I-53, (2R,4S)—N—((S)-1-(((6-Amino-2-Methylpyridin-3-Yl)Methyl)Amino)-1-Oxopropan-2-Yl)-4-((1-Methyl-2-Oxo-1,2-Dihydropyridin-4-Yl)Methyl)Pyrrolidine-2-Carboxamide Di-Trifluoroacetate], below 500 nM.
`COC(=O)c1cccc(C[C@@H]2CN[C@@H](C(=O)N[C@@H](C)C(=O)NCc3ccc(C(=N)N)cc3)C2)c1` [Compound I-54, Methyl 3-(((3S,5R)-5-(((S)-1-((4-Carbamimidoylbenzyl)Amino)-1-Oxopropan-2-Yl)Carbamoyl)Pyrrolidin-3-Yl)Methyl)Benzoate Di-Trifluoroacetate] registered a Ki below 500 nM.
For the compound `C[C@H](NC(=O)[C@H]1C[C@H](Cc2cccc(C(=O)O)c2)CN1)C(=O)NCc1ccc(C(=N)N)cc1` [Compound I-55, 3-(((3S,5R)-5-(((S)-1-((4-Carbamimidoylbenzyl)Amino)-1-Oxopropan-2-Yl)Carbamoyl)Pyrrolidin-3-Yl)Methyl)Benzoic Acid Di-Trifluoroacetate], the Ki was below 500 nM.
On to `C[C@H](NC(=O)[C@H]1C[C@H](Cc2ccnc(N)c2)CN1)C(=O)NCc1ccc(C(=N)N)cc1` [Compound I-56, (2R,4S)-4-((2-Aminopyridin-4-Yl)Methyl)-N—((S)-1-((4-Carbamimidoylbenzyl)Amino)-1-Oxopropan-2-Yl)Pyrrolidine-2-Carboxamide Di-Trifluoroacetate], for which the Ki was below 500 nM.
In turn, `Cc1nc(N)ccc1CNC(=O)[C@H](CO)NC(=O)[C@H]1C[C@H](Cc2ccccc2)CN1` [Compound I-57, (2R,4S)—N—((S)-1-(((6-Amino-2-Methylpyridin-3-Yl)Methyl)Amino)-3-Hydroxy-1-Oxopropan-2-Yl)-4-Benzylpyrrolidine-2-Carboxamide Dihydrochloride] gave an inhibition constant Ki below 500 nM.
Consider `Cc1nc(N)ccc1CNC(=O)[C@@H]1COC(=O)N1C(=O)[C@H]1C[C@H](Cc2ccccc2)CN1` [Compound I-58, (S)—N-((6-Amino-2-Methylpyridin-3-Yl)Methyl)-3-((2R,4S)-4-Benzylpyrrolidine-2-Carbonyl)-2-Oxooxazolidine-4-Carboxamide Di-Trifluoroacetate], for which the inhibition constant Ki is below 500 nM.
For the compound `C[C@H](NC(=O)[C@H]1C[C@H](Cc2ccccc2)CN1)C(=O)NCc1ccc2nccn2c1` [Compound I-59, (2R,4S)-4-Benzyl-N—((S)-1-((Imidazo[1,2-A]Pyridin-6-Ylmethyl)Amino)-1-Oxopropan-2-Yl Pyrrolidine-2-Carboxamide Trifluoroacetate], the Ki was above 10000 nM.
`C[C@H](NC(=O)[C@H]1C[C@H](Cc2ccccc2)CN1)C(=O)NCc1ccc2ncc(Cl)n2c1` [Compound I-60, (2R,4S)-4-Benzyl-N—((S)-1-(((3-Chloroimidazo[1,2-A]Pyridin-6-Yl)Methyl)Amino)-1-Oxopropan-2-Yl)Pyrrolidine-2-Carboxamide Trifluoroacetate]: the Ki was above 10000 nM.
Turning to `Cc1nc(N)ccc1CNC(=O)[C@H]1CC(F)(F)CN1C(=O)[C@@H]1C[C@@H](Cc2ccc(Br)cc2)CN1` [Compound I-61, (R)—N-((6-Amino-2-Methylpyridin-3-Yl)Methyl)-1-((2S,4R)-4-(4-Bromobenzyl)Pyrrolidine-2-Carbonyl)-4,4-Difluoropyrrolidine-2-Carboxamide Dihydrochloride], the Ki is below 500 nM.
The compound `Cc1nc(N)ccc1CNC(=O)[C@@H]1CCN1C(=O)[C@H]1C[C@H](Cc2ccc(-c3ccccc3)cc2)CN1` [Compound I-62, (S)-1-((2R,4S)-4-([1,1′-Biphenyl]-4-Ylmethyl)Pyrrolidine-2-Carbonyl)-N-((6-Amino-2-Methylpyridin-3-Yl)Methyl)Azetidine-2-Carboxamide Di-Trifluoroacetate] gave a Ki below 500 nM.
For the compound `Cc1nc(N)ccc1CNC(=O)[C@@H]1CCN1C(=O)[C@H]1C[C@@H](c2ccccc2)CCN1` [Compound I-63, (S)—N-((6-Amino-2-Methylpyridin-3-Yl)Methyl)-1-((2R,4S)-4-Phenylpiperidine-2-Carbonyl)Azetidine-2-Carboxamide Di-Trifluoroacetate], the Ki is below 500 nM.
`Cc1nc(N)ccc1CNC(=O)[C@@H]1CCN1C(=O)[C@H]1C[C@H](c2cccc(-c3ccccc3)c2)CN1` [Compound I-64, (S)-1-((2R,4R)-4-([1,1′-Biphenyl]-3-Yl)Pyrrolidine-2-Carbonyl)-N-((6-Amino-2-Methylpyridin-3-Yl)Methyl)Azetidine-2-Carboxamide Di-Trifluoroacetate] yielded a Ki below 500 nM.
`Cc1nc(N)ccc1CNC(=O)[C@@H]1CCN1C(=O)[C@H]1C[C@@H](c2cccc(-c3ccccc3)c2)CCN1` [Compound I-65, (S)-1-((2R,4S)-4-([1,1′-Biphenyl]-3-Yl)Piperidine-2-Carbonyl)-N-((6-Amino-2-Methylpyridin-3-Yl)Methyl)Azetidine-2-Carboxamide Di-Trifluoroacetate]: the Ki was below 500 nM.
`N=C(N)c1ccc(CNC(=O)[C@@H]2CCN2C(=O)[C@H]2C[C@@H](c3ccccc3)CCN2)cc1` [Compound I-66, (S)—N-(4-Carbamimidoylbenzyl)-1-((2R,4S)-4-Phenylpiperidine-2-Carbonyl)Azetidine-2-Carboxamide Trifluoroacetate] returned an inhibition constant Ki below 500 nM.
As for `C[C@H](NC(=O)[C@H]1C[C@@H](c2ccc(F)cc2)CCN1)C(=O)NCc1ccc(C(=N)N)cc1` [Compound I-67], the Ki is below 500 nM.
Consider `C[C@H](NC(=O)[C@H]1C[C@@H](c2cccc(-c3ccccc3)c2)CCN1)C(=O)NCc1ccc(C(=N)N)cc1` [Compound I-68, (2R,4S)-4-([1,1′-Biphenyl]-3-Yl)-N—((S)-1-((4-Carbamimidoylbenzyl)Amino)-1-Oxopropan-2-Yl)Piperidine-2-Carboxamide Di-Trifluoroacetate], for which the Ki is below 500 nM.
With `C[C@H](NC(=O)[C@H]1C[C@@H](c2ccc(-c3ccccc3)cc2)CCN1)C(=O)NCc1ccc(C(=N)N)cc1` [Compound I-69, (2R,4S)-4-([1,1′-Biphenyl]-4-Yl)-N—((S)-1-((4-Carbamimidoylbenzyl)Amino)-1-Oxopropan-2-Yl)Piperidine-2-Carboxamide Di-Trifluoroacetate] the figure was below 500 nM.
